Experimental data from US10058587B2, “Peptide composition for cancer treatment by inhibiting TRPV6 calcium channel activity” (priority 2008, dated 2018).
Where no end group is shown, it is not given here.

Tests used:
[1] = test system: T47D breast cancer xenografts; assay: T-47D breast cancer xenograft, SorC13 with Paclitaxel (Example 27); assay type: in vivo, NOD/SCID mice; details: for % ΔT/ΔC (tumor volume normalized to control) / Mean tumour volume: alone or with SorC13; for Mean tumour volume: after 12-day rest post-treatment; for Mean tumor volume: day 12 of treatment, alone or with SorC13 300 mg/kg
Procedure: Tumor volumes (V) were calculated by caliper measurement using standard measurements of the width (W), length (L) and thickness (T) of tumors. Animals were randomized into treatment groups so that the median tumor volumes of each group were similar at the start of dosing. Percentage ΔT/ΔC values, as a measure of efficacy, were determined where ΔC refers to change in volume of control or untreated tumor, and ΔT refers to change in volume of treated tumor.
Animals were intraperitoneally (i.p.) injected with the vehicular control, or the low, medium or high doses of CAT or CAT and SorC13. Mice received low medium or high doses of CAT or CAT and SorC13 by i.p. injection every day for 12 days or CAT injections as set out in Table 10. Paclitaxel was injected first, followed by carboplatin 30 minutes later and then SorC13. The tumor volume and body weights were measured every day. As well, general health of the animals was monitored every day.
The human […] breast cancer cell line T-47D (ATCC #HTB-133), was cultured in growth media prepared with ATCC complete growth medium. The base medium for the T-47D cell line is ATCC-formulated RPMI-1640 Medium. The complete growth medium is supplemented with 0.2 Units/ml bovine insulin and fetal bovine serum to a final concentration of 10% (v/v). Cells were cultured at 37° C. in an atmosphere of 95% air and 5% carbon dioxide with sub-culturing done according to ATCC guidelines.
The cell preparation, formulation, implantation, measurement and treatment procedures were otherwise as described in Example 26 and Table 10 but with Paclitaxel at low (6 mg/kg), medium (10 mg/kg) and high (16 mg/kg) doses.

[2] = Tissue distribution of Cy5.5-labeled peptides by optical imaging; assay type: in vivo, CD1 mice; details: four hours after i.v. injection of 100 ug
Description: SorC13 and SorC27 were labeled with the near-infrared probe, Cy5.5. SorC13 was labeled at lysine-1 and lysine-8 with the infrared fluorescent probe cy5.5 through reaction with Cy5.5 NHS ester-activated process. SorC27 was labeled at the single cysteine thiol with Cy5.5 maleamide-activated reaction. The labeled peptides were purified with a combination of size exclusion chromatography and HPLC. The label, Cy5.5, fluoresces in the infra-red region after excitation with a scanning laser. The low energy laser is able to penetrate the animal to about 1 cm and, thus, by scanning prone and supine positions, the presence of the tagged peptides can be quantified in three dimensions.
Cy5.5-labeled peptides were intravenously injected into CD1 mice (4 for each compound) at 100 ug per animal in 100 uL, and animals were imaged live using an optical imaging system, Optix eXplorer (GE Healthcare Systems) at different time points (30 min, 90 min, 4 h). […] The bio-distribution of the labeled peptides in different organs and tissues were visualized and relatively quantified by optical imaging analysis. This protocol allows for visualization of the location of the labeled peptides and how the location changes over time. […] Nodes that accumulated the labeled peptides are indicated by line 1 (superfacial cervical nodes), line 4 (axillary nodes), line 5 (brachial nodes), line 8 (mesenteric nodes) and line 9 (inguinal nodes). FIGS. 8, 9 and 10 show the amounts of labeled peptides in various organs ex vivo.

human TRPV6b = biological target: T1, human TRPV6b (Homo sapiens, UniProt Q9H1D0); assay: Whole-cell patch clamp of calcium store operated current (ISOC) through TRPV6 in transfected LnCaP cells; assay type: cell-based
T1 construct: expressed in transfected cells; host or cells: LnCaP (ATCC CRL-1740), human lymph node prostate cancer cells
T1 sequence (Q9H1D0 41-765 limits assumed): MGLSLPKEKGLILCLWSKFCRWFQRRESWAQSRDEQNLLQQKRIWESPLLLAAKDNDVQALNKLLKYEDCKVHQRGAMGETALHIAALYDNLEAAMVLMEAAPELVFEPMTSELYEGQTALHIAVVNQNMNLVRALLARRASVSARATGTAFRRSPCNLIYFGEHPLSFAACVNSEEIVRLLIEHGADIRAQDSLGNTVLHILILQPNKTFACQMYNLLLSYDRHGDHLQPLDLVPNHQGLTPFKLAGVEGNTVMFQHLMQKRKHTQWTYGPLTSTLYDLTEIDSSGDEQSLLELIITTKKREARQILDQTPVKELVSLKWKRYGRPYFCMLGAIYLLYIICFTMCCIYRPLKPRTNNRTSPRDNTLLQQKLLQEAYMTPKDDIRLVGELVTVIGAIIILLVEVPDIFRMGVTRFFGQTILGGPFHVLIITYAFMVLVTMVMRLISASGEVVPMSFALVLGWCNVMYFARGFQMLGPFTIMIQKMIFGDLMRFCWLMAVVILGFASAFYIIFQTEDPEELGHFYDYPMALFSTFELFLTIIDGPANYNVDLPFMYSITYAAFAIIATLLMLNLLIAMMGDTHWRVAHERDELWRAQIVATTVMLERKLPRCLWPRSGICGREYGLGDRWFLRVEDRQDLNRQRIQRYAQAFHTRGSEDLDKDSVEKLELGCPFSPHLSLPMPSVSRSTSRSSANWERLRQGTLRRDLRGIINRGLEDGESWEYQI
Procedure: An expression vector (pCAGS-IRES-hTRPV6b) (Bodding et al. 2003) containing the nucleotide code for human TRPV6b was transfected into and expressed by human lymph node prostate cancer (LnCaP, ATCC CRL-1740). Patch clamping with whole-cell current acquisition was used to measure the calcium current through this channel. Cells were treated and calcium store operated current (ISOC) was measured with either SorC13 (n=90) or SorC27 (n=30) in a closed-circuit perfusion for 3 min at each of cumulative concentrations of 0 (baseline), 100 nM, 500 nM 1 uM, 30 uM and 100 uM. Washout perfusion was done at 2 mL/min for 3 min. […] Further, both C-peptides are very strong inhibitors of calcium current through the TRPV6 channel with inhibition constants in the 100 nM range.

CC(=O)O[C@H]1C(=O)[C@@]2(C)[C@H]([C@H](OC(=O)c3ccccc3)[C@]3(O)C[C@H](OC(=O)[C@H](O)[C@@H](NC(=O)c4ccccc4)c4ccccc4)C(C)=C1C3(C)C)[C@]1(OC(C)=O)CO[C@@H]1C[C@@H]2O [Paclitaxel]
% ΔT/ΔC (tumor volume normalized to control) ([1]; Day 6, high Paclitaxel (16 mg/kg)): 17.8% | % ΔT/ΔC (tumor volume normalized to control) ([1]; Day 6, low Paclitaxel (6 mg/kg)): 26.0% | % ΔT/ΔC (tumor volume normalized to control) ([1]; Day 6, medium Paclitaxel (10 mg/kg)): −4.0% | % ΔT/ΔC (tumor volume normalized to control) ([1]; Day 12, high Paclitaxel (16 mg/kg)): −96.4% | % ΔT/ΔC (tumor volume normalized to control) ([1]; Day 12, low Paclitaxel (6 mg/kg)): 16.3% | % ΔT/ΔC (tumor volume normalized to control) ([1]; Day 12, medium Paclitaxel (10 mg/kg)): −45.9% | % ΔT/ΔC (tumor volume normalized to control) ([1]; Day 18 (rest period), high Paclitaxel): −112.4% | % ΔT/ΔC (tumor volume normalized to control) ([1]; Day 18 (rest period), low Paclitaxel): 46.0% | % ΔT/ΔC (tumor volume normalized to control) ([1]; Day 18 (rest period), medium Paclitaxel): −56.9% | % ΔT/ΔC (tumor volume normalized to control) ([1]; Day 24 (rest period), high Paclitaxel): −88.4% | % ΔT/ΔC (tumor volume normalized to control) ([1]; Day 24 (rest period), low Paclitaxel): 33.3% | % ΔT/ΔC (tumor volume normalized to control) ([1]; Day 24 (rest period), medium Paclitaxel): −33.2% | Mean tumour volume ([1]; high Paclitaxel (16 mg/kg)): 20.24 mm^3 | Mean tumour volume ([1]; low Paclitaxel (6 mg/kg)): 52.08 mm^3 | Mean tumour volume ([1]; medium Paclitaxel (10 mg/kg)): 35.52 mm^3 | Mean tumor volume ([1]; high Paclitaxel (16 mg/kg)): 26.47 mm^3 | Mean tumor volume ([1]; low Paclitaxel (6 mg/kg)): 46.37 mm^3 | Mean tumor volume ([1]; medium Paclitaxel (10 mg/kg)): 36.23 mm^3

SorC27-Cy5.5: SorC27 labeled at the single cysteine thiol with Cy5.5 (EGKLSSNDTEGGLC(Cy5.5)KEFLHPSKVDLPR)
accumulation at lymph nodes (superfacial cervical, axillary, branchial, mesenteric, inguinal) [2]: Significant accumulation

C#CCN1C(C)=C(C(=O)OC)C(c2cccc([N+](=O)[O-])c2)C(C(=O)OCC)=C1C (stereo not drawn) [MRS-1845, N-propargylnitrendipene, reference compound]
inhibition of the calcium current (human TRPV6b; positive control at 5 uM): demonstrated inhibition of the calcium current

HPSKVDLPR [SorC9, HPSKVDLPR]
Kd (human TRPV6b): ~90 nM
